According to the NIST ThermoML archive (doi:10.1016/j.jct.2014.05.020):
± gives the expanded uncertainty stated by the source.

Assay: excess molar enthalpy (molar enthalpy of mixing); xn = mol fraction of the nth substance listed
Conditions: Flow calorimetry

C1CCCCC1 [cyclohexane] + c1ccccc1
Conditions | excess molar enthalpy [kcal/mol]
423.2 K, 25000 kPa, Liquid, x2 = 0.829 | 0.0735 ± 0.00311
423.2 K, 25000 kPa, Liquid, x2 = 0.8729 | 0.0576 ± 0.00311
423.2 K, 25000 kPa, Liquid, x2 = 0.916 | 0.0394 ± 0.00335
423.2 K, 25000 kPa, Liquid, x2 = 0.9584 | 0.0193 ± 0.00335
473.2 K, 5000 kPa, Liquid, x2 = 0.1189 | 0.0453 ± 0.00287
473.2 K, 5000 kPa, Liquid, x2 = 0.1765 | 0.0633 ± 0.00287
473.2 K, 5000 kPa, Liquid, x2 = 0.233 | 0.0777 ± 0.00287
473.2 K, 5000 kPa, Liquid, x2 = 0.3424 | 0.0989 ± 0.00287
473.2 K, 5000 kPa, Liquid, x2 = 0.4475 | 0.11 ± 0.00287
473.2 K, 5000 kPa, Liquid, x2 = 0.5485 | 0.111 ± 0.00287
473.2 K, 5000 kPa, Liquid, x2 = 0.6457 | 0.103 ± 0.00287
473.2 K, 5000 kPa, Liquid, x2 = 0.7392 | 0.0873 ± 0.00287
473.2 K, 5000 kPa, Liquid, x2 = 0.8293 | 0.0633 ± 0.00287
473.2 K, 5000 kPa, Liquid, x2 = 0.8732 | 0.0486 ± 0.00311
473.2 K, 5000 kPa, Liquid, x2 = 0.9162 | 0.0332 ± 0.00311
473.2 K, 5000 kPa, Liquid, x2 = 0.9585 | 0.0184 ± 0.00311
473.2 K, 15000 kPa, Liquid, x2 = 0.1188 | 0.0434 ± 0.00287
473.2 K, 15000 kPa, Liquid, x2 = 0.1763 | 0.0605 ± 0.00287
473.2 K, 15000 kPa, Liquid, x2 = 0.2327 | 0.075 ± 0.00287
473.2 K, 15000 kPa, Liquid, x2 = 0.3421 | 0.0956 ± 0.00287
473.2 K, 15000 kPa, Liquid, x2 = 0.4471 | 0.106 ± 0.00287
473.2 K, 15000 kPa, Liquid, x2 = 0.5482 | 0.107 ± 0.00287
473.2 K, 15000 kPa, Liquid, x2 = 0.6454 | 0.1 ± 0.00287
473.2 K, 15000 kPa, Liquid, x2 = 0.7389 | 0.0848 ± 0.00287
473.2 K, 15000 kPa, Liquid, x2 = 0.8291 | 0.0615 ± 0.00287
473.2 K, 15000 kPa, Liquid, x2 = 0.873 | 0.047 ± 0.00311
473.2 K, 15000 kPa, Liquid, x2 = 0.9161 | 0.0316 ± 0.00311
473.2 K, 15000 kPa, Liquid, x2 = 0.9584 | 0.0173 ± 0.00311
473.2 K, 25000 kPa, Liquid, x2 = 0.1187 | 0.042 ± 0.00287
473.2 K, 25000 kPa, Liquid, x2 = 0.1762 | 0.0588 ± 0.00287
473.2 K, 25000 kPa, Liquid, x2 = 0.2325 | 0.0729 ± 0.00287
473.2 K, 25000 kPa, Liquid, x2 = 0.3418 | 0.0929 ± 0.00287
473.2 K, 25000 kPa, Liquid, x2 = 0.4469 | 0.103 ± 0.00287
473.2 K, 25000 kPa, Liquid, x2 = 0.5479 | 0.104 ± 0.00287
473.2 K, 25000 kPa, Liquid, x2 = 0.6451 | 0.0968 ± 0.00287
473.2 K, 25000 kPa, Liquid, x2 = 0.7388 | 0.0815 ± 0.00287
473.2 K, 25000 kPa, Liquid, x2 = 0.829 | 0.0584 ± 0.00287
473.2 K, 25000 kPa, Liquid, x2 = 0.8729 | 0.0442 ± 0.00311
473.2 K, 25000 kPa, Liquid, x2 = 0.916 | 0.0288 ± 0.00311
473.2 K, 25000 kPa, Liquid, x2 = 0.9584 | 0.0149 ± 0.00287
498.2 K, 5000 kPa, Liquid, x2 = 0.1189 | 0.0447 ± 0.00287
498.2 K, 5000 kPa, Liquid, x2 = 0.1765 | 0.0625 ± 0.00287
498.2 K, 5000 kPa, Liquid, x2 = 0.233 | 0.0774 ± 0.00287
498.2 K, 5000 kPa, Liquid, x2 = 0.3424 | 0.0984 ± 0.00287
498.2 K, 5000 kPa, Liquid, x2 = 0.4475 | 0.109 ± 0.00287
498.2 K, 5000 kPa, Liquid, x2 = 0.5485 | 0.11 ± 0.00287
498.2 K, 5000 kPa, Liquid, x2 = 0.6457 | 0.102 ± 0.00287
498.2 K, 5000 kPa, Liquid, x2 = 0.7392 | 0.0863 ± 0.00287
498.2 K, 5000 kPa, Liquid, x2 = 0.8293 | 0.0618 ± 0.00287
498.2 K, 5000 kPa, Liquid, x2 = 0.8732 | 0.0465 ± 0.00311
498.2 K, 5000 kPa, Liquid, x2 = 0.9162 | 0.0295 ± 0.00311
498.2 K, 15000 kPa, Liquid, x2 = 0.1188 | 0.0418 ± 0.00287
498.2 K, 15000 kPa, Liquid, x2 = 0.1763 | 0.0582 ± 0.00287
498.2 K, 15000 kPa, Liquid, x2 = 0.2327 | 0.0716 ± 0.00287
498.2 K, 15000 kPa, Liquid, x2 = 0.3421 | 0.091 ± 0.00287
498.2 K, 15000 kPa, Liquid, x2 = 0.4471 | 0.101 ± 0.00287
498.2 K, 15000 kPa, Liquid, x2 = 0.5482 | 0.102 ± 0.00287
498.2 K, 15000 kPa, Liquid, x2 = 0.6454 | 0.0943 ± 0.00287
498.2 K, 15000 kPa, Liquid, x2 = 0.7389 | 0.0791 ± 0.00287
498.2 K, 15000 kPa, Liquid, x2 = 0.8291 | 0.0565 ± 0.00287
498.2 K, 15000 kPa, Liquid, x2 = 0.873 | 0.042 ± 0.00311
498.2 K, 15000 kPa, Liquid, x2 = 0.9161 | 0.0262 ± 0.00311
523.2 K, 5000 kPa, Liquid, x2 = 0.1189 | 0.0458 ± 0.00311
523.2 K, 5000 kPa, Liquid, x2 = 0.1765 | 0.0644 ± 0.00311
523.2 K, 5000 kPa, Liquid, x2 = 0.233 | 0.0798 ± 0.00287
523.2 K, 5000 kPa, Liquid, x2 = 0.3424 | 0.101 ± 0.00287
523.2 K, 5000 kPa, Liquid, x2 = 0.4475 | 0.112 ± 0.00287
523.2 K, 5000 kPa, Liquid, x2 = 0.5485 | 0.114 ± 0.00287
523.2 K, 5000 kPa, Liquid, x2 = 0.6457 | 0.105 ± 0.00287
523.2 K, 5000 kPa, Liquid, x2 = 0.7392 | 0.0877 ± 0.00287
523.2 K, 5000 kPa, Liquid, x2 = 0.8293 | 0.0619 ± 0.00311
523.2 K, 5000 kPa, Liquid, x2 = 0.8732 | 0.0463 ± 0.00311
523.2 K, 5000 kPa, Liquid, x2 = 0.9162 | 0.0303 ± 0.00311
523.2 K, 5000 kPa, Liquid, x2 = 0.9585 | 0.0173 ± 0.00287
523.2 K, 15000 kPa, Liquid, x2 = 0.1188 | 0.0387 ± 0.00287
523.2 K, 15000 kPa, Liquid, x2 = 0.1763 | 0.0539 ± 0.00287
523.2 K, 15000 kPa, Liquid, x2 = 0.2327 | 0.0667 ± 0.00287
523.2 K, 15000 kPa, Liquid, x2 = 0.3421 | 0.0855 ± 0.00287
523.2 K, 15000 kPa, Liquid, x2 = 0.4471 | 0.0946 ± 0.00287
523.2 K, 15000 kPa, Liquid, x2 = 0.5482 | 0.0951 ± 0.00287
523.2 K, 15000 kPa, Liquid, x2 = 0.6454 | 0.088 ± 0.00287
523.2 K, 15000 kPa, Liquid, x2 = 0.7389 | 0.0732 ± 0.00287
523.2 K, 15000 kPa, Liquid, x2 = 0.8291 | 0.0516 ± 0.00287
523.2 K, 15000 kPa, Liquid, x2 = 0.873 | 0.0391 ± 0.00287
523.2 K, 15000 kPa, Liquid, x2 = 0.9161 | 0.025 ± 0.00287
523.2 K, 15000 kPa, Liquid, x2 = 0.9584 | 0.0128 ± 0.00287
523.2 K, 25000 kPa, Liquid, x2 = 0.1187 | 0.0369 ± 0.00287
523.2 K, 25000 kPa, Liquid, x2 = 0.1762 | 0.0516 ± 0.00287
523.2 K, 25000 kPa, Liquid, x2 = 0.2325 | 0.0643 ± 0.00287
523.2 K, 25000 kPa, Liquid, x2 = 0.3418 | 0.0817 ± 0.00287
523.2 K, 25000 kPa, Liquid, x2 = 0.4469 | 0.0899 ± 0.00287
523.2 K, 25000 kPa, Liquid, x2 = 0.5479 | 0.0903 ± 0.00287
523.2 K, 25000 kPa, Liquid, x2 = 0.6451 | 0.0836 ± 0.00287
523.2 K, 25000 kPa, Liquid, x2 = 0.7388 | 0.0694 ± 0.00287
523.2 K, 25000 kPa, Liquid, x2 = 0.829 | 0.0483 ± 0.00287
523.2 K, 25000 kPa, Liquid, x2 = 0.8729 | 0.0367 ± 0.00287
523.2 K, 25000 kPa, Liquid, x2 = 0.916 | 0.0234 ± 0.00287
523.2 K, 25000 kPa, Liquid, x2 = 0.9584 | 0.0123 ± 0.00287
573.2 K, 15000 kPa, Fluid (supercritical or subcritical phases), x2 = 0.1188 | 0.0358 ± 0.00287
573.2 K, 15000 kPa, Fluid (supercritical or subcritical phases), x2 = 0.1763 | 0.0503 ± 0.00287
573.2 K, 15000 kPa, Fluid (supercritical or subcritical phases), x2 = 0.2327 | 0.0611 ± 0.00287
573.2 K, 15000 kPa, Fluid (supercritical or subcritical phases), x2 = 0.3421 | 0.0788 ± 0.00287
573.2 K, 15000 kPa, Fluid (supercritical or subcritical phases), x2 = 0.4471 | 0.088 ± 0.00263
573.2 K, 15000 kPa, Fluid (supercritical or subcritical phases), x2 = 0.5482 | 0.0891 ± 0.00263
573.2 K, 15000 kPa, Fluid (supercritical or subcritical phases), x2 = 0.6454 | 0.0821 ± 0.00287
573.2 K, 15000 kPa, Fluid (supercritical or subcritical phases), x2 = 0.7389 | 0.0687 ± 0.00287
573.2 K, 15000 kPa, Fluid (supercritical or subcritical phases), x2 = 0.8291 | 0.0493 ± 0.00287
573.2 K, 15000 kPa, Fluid (supercritical or subcritical phases), x2 = 0.873 | 0.0361 ± 0.00287
573.2 K, 15000 kPa, Fluid (supercritical or subcritical phases), x2 = 0.9161 | 0.025 ± 0.00287
573.2 K, 15000 kPa, Fluid (supercritical or subcritical phases), x2 = 0.9584 | 0.012 ± 0.00287
573.2 K, 25000 kPa, Fluid (supercritical or subcritical phases), x2 = 0.1187 | 0.0333 ± 0.00287
573.2 K, 25000 kPa, Fluid (supercritical or subcritical phases), x2 = 0.1762 | 0.0474 ± 0.00287
573.2 K, 25000 kPa, Fluid (supercritical or subcritical phases), x2 = 0.2325 | 0.0572 ± 0.00287
573.2 K, 25000 kPa, Fluid (supercritical or subcritical phases), x2 = 0.3418 | 0.0738 ± 0.00287
573.2 K, 25000 kPa, Fluid (supercritical or subcritical phases), x2 = 0.4469 | 0.0825 ± 0.00263
573.2 K, 25000 kPa, Fluid (supercritical or subcritical phases), x2 = 0.5479 | 0.0834 ± 0.00263
573.2 K, 25000 kPa, Fluid (supercritical or subcritical phases), x2 = 0.6451 | 0.0767 ± 0.00263
573.2 K, 25000 kPa, Fluid (supercritical or subcritical phases), x2 = 0.7388 | 0.0641 ± 0.00287
573.2 K, 25000 kPa, Fluid (supercritical or subcritical phases), x2 = 0.829 | 0.045 ± 0.00287
573.2 K, 25000 kPa, Fluid (supercritical or subcritical phases), x2 = 0.8729 | 0.0332 ± 0.00287
573.2 K, 25000 kPa, Fluid (supercritical or subcritical phases), x2 = 0.916 | 0.02 ± 0.00287
573.2 K, 25000 kPa, Fluid (supercritical or subcritical phases), x2 = 0.9584 | 0.00954 ± 0.00287
